The target of this test is T1, human factor Xa (Homo sapiens, UniProt P00742).
T1 construct: 25 μl human factor Xa (Enzyme Research Laboratories, Inc; South Bend, Ind.) in TBS-PEG; purchased Enzyme Research Laboratories, Inc; South Bend, Ind
Put plainly: Factor Xa assay (chromogenic, substrate S-2765). In kind it is biochemical. The conditions noted are these: inhibition constant for inhibition of factor Xa; IC50 corrected for substrate competition; 0.5 nM enzyme, 140 μM S-2765, 25° C., pH 7.8; read-out: Ki(FXa). On the procedure:
The ability of the compounds of the formula I to inhibit factor Xa or factor VIIa or other enzymes like thrombin, plasmin, or trypsin can be assessed by determining the concentration of the compound of the formula I that inhibits enzyme activity by 50%, i. e. the IC50 value, which was related to the inhibition constant Ki. Purified enzymes were used in chromogenic assays. The concentration of inhibitor that causes a 50% decrease in the rate of substrate hydrolysis was determined by linear regression after plotting the relative rates of hydrolysis (compared to the uninhibited control) versus the log of the concentration of the compound of formula I. For calculating the inhibition constant Ki, the IC50 value was corrected for competition with substrate using the formula Ki=IC50/{1+(substrate concentration/Km)} wherein Km is the Michaelis-Menten constant (Chen and Prusoff, Biochem. Pharmacol. 22 (1973), 3099-3108; I. H. Segal, Enzyme Kinetics, 1975, John Wiley & Sons, New York, 100-125; which were incorporated herein by reference). a) Factor Xa Assay
In the assay for determining the inhibition of factor Xa activity TBS-PEG buffer (50 mM Tris-HCl, pH 7.8, 200 mM NaCl, 0.05% (w/v) PEG-8000, 0.02% (w/v) NaN3) was used. The IC50 was determined by combining in appropriate wells of a Costar half-area microtiter plate 25 μl human factor Xa (Enzyme Research Laboratories, Inc.; South Bend, Ind.) in TBS-PEG; 40 μl 10% (v/v) DMSO in TBS-PEG (uninhibited control) or various concentrations of the compound to be tested diluted in 10% (v/v) DMSO in TBS-PEG; and substrate S-2765 (N(α)-benzyloxycarbonyl-D-Arg-Gly-L-Arg-p-nitroanilide; Kabi Pharmacia, Inc.; Franklin, Ohio) in TBS-PEG.
The assay was performed by pre-incubating the compound of formula I plus enzyme for 10 min. Then the assay was initiated by adding substrate to obtain a final volume of 100 μl. The initial velocity of chromogenic substrate hydrolysis was measured by the change in absorbance at 405 nm using a Biotek Instruments kinetic plate reader (Ceres UV900HDi) at 25° C. during the linear portion of the time course (usually 1.5 min after addition of substrate). The enzyme concentration was 0.5 nM and substrate concentration was 140 μM.

The structures appear in SMILES notation.

T1 sequence (P00742 235-488 limits assumed): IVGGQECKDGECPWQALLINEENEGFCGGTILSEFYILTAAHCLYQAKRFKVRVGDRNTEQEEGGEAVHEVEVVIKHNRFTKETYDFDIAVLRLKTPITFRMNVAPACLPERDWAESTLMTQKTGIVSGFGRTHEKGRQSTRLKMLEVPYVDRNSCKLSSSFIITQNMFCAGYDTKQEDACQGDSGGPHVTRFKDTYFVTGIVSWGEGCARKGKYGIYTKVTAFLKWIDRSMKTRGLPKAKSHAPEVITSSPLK
T1 sequence (P00742 41-179 partner limits assumed): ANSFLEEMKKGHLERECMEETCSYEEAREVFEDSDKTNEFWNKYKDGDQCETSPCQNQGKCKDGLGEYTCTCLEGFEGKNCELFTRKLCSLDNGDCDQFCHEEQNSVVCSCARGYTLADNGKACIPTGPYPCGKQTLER

In general, Ki refers to a dissociation constant, usually derived from enzyme kinetics or from competition with a known ligand. With `CC(C)N1CCC(NC(=O)c2cc3cc(OCCO)ncc3n2Cc2cc(-c3ccc(Cl)s3)on2)CC1` [Example 11, 1-[5-(5-Chloro-thiophen-2-yl)-isoxazol-3-ylmethyl]-5-(2-hydroxy-ethoxy)-1H-pyrrolo[2,3-c]pyridine-2-carboxylic acid (1-isopropyl-piperidin-4-yl)-amide], the Ki came to 47 nM. The value for `COC(=O)c1cnc2c(c1)cc(C(=O)NC1CCN(C(C)C)CC1)n2Cc1cc(-c2ccc(Cl)s2)on1` [Example 2, 1-[5-(5-Chloro-thiophen-2-yl)-isoxazol-3-ylmethyl]-2-(1-isopropyl-piperidin-4-ylcarbamoyl)-1H-pyrrolo[2,3-b]pyridine-5-carboxylic acid methyl ester] was 55 nM. The value for `CC(C)N1CCC(NC(=O)c2cc3cc(C(=O)O)cnc3n2Cc2cc(-c3ccc(Cl)s3)on2)CC1` [Example 3, 1-[5-(5-Chloro-thiophen-2-yl)-isoxazol-3-ylmethyl]-2-(1-isopropyl-piperidin-4-ylcarbamoyl)-1H-pyrrolo[2,3-b]pyridine-5-carboxylic acid] was 67 nM. On to `CC(C)N1CCC(NC(=O)c2cc3cc(C(N)=O)cnc3n2Cc2cc(-c3ccc(Cl)s3)on2)CC1` [Example 4, 1-[5-(5-Chloro-thiophen-2-yl)-isoxazol-3-ylmethyl]-1H-pyrrolo[2,3-b]pyridine-2,5-dicarboxylic acid 5-amide 2-[(1-isopropyl-piperidin-4-yl)-amide]], for which the Ki stood at 70 nM. Take `CC(C)N1CCC(NC(=O)c2cc3cccnc3n2Cc2cc(-c3ccc(Cl)s3)on2)CC1` [Example 1, 1-[5-(5-Chloro-thiophen-2-yl)-isoxazol-3-ylmethyl]-1H-pyrrolo[2,3-b]pyridine-2-carboxylic acid (1-isopropyl-piperidin-4-yl)-amide]: the inhibitory constant (Ki) came to 6 nM. The value for `CC(C)N1CCC(NC(=O)c2cc3ncccc3n2Cc2cc(-c3ccc(Cl)s3)on2)CC1` [Example 5, 1-[5-(5-Chloro-thiophen-2-yl)-isoxazol-3-ylmethyl]-1H-pyrrolo[3,2-b]pyridine-2-carboxylic acid (1-isopropyl-piperidin-4-yl)-amide] was 4 nM; that for `CC(C)N1CCC(NC(=O)c2cc3[nH]c(=O)ccc3n2Cc2cc(-c3ccc(Cl)s3)on2)CC1` [Example 7, 1-[5-(5-Chloro-thiophen-2-yl)-isoxazol-3-ylmethyl]-5-oxo-4,5-dihydro-1H-pyrrolo[3,2-b]pyridine-2-carboxylic acid (1-isopropyl-piperidin-4-yl)-amide] was 23 nM; that for `CC(C)N1CCC(NC(=O)c2cc3nc(C(=O)O)ccc3n2Cc2cc(-c3ccc(Cl)s3)on2)CC1` [Example 6, 1-[5-(5-Chloro-thiophen-2-yl)-isoxazol-3-ylmethyl]-2-(1-isopropyl-piperidin-4-ylcarbamoyl)-1H-pyrrolo[3,2-b]pyridine-5-carboxylic acid] was 10 nM. The value for `O=C(O)c1ccc2c(cc(C(=O)NC3CCN(c4ccncc4)CC3)n2Cc2cc(-c3ccc(Cl)s3)on2)n1` [Example 9, 1-[5-(5-Chloro-thiophen-2-yl)-isoxazol-3-ylmethyl]-2-(3,4,5,6-tetrahydro-2H-[1,4′]bipyridyl-4-ylcarbamoyl)-1H-pyrrolo[3,2-b]pyridine-5-carboxylic acid] was 85 nM; that for `CC(C)N1CCC(NC(=O)c2cc3cc(OCCO)ncc3n2CC(=O)Nc2ccc(Cl)cn2)CC1` [Example 13, 1-[(5-Chloro-pyridin-2-ylcarbamoyl)-methyl]-5-(2-hydroxy-ethoxy)-1H-pyrrolo[2,3-c]pyridine-2-carboxylic acid (1-isopropyl-piperidin-4-yl)-amide] was 44 nM.

The values are drawn from patent US7317027B2, “Azaindole-derivatives as factor Xa inhibitors” (Sanofi-Aventis Deutschland GmbH, priority 2003, dated 2008).
